Experimental data taken from patent US20220177456A1, “COMPOUNDS, COMPOSITIONS AND METHODS” (Denali Therapeutics Inc., priority 2019, published 2022).

Test system: ISR pathway (ATF4 translation), H4 ATF4-NLuc (clone 17) cell line
Assay: ATF4 Nano Luciferase reporter integrated stress response (ISR) assay in H4 ATF4-NLuc cells
Format: cell-based
Conditions: human H4 neuroglioma ATF4-NLuc cells; compound 30 minutes, then 50 μm sodium arsenite for 6 hours; luminescence readout
Excerpt: Cellular stress leads to activation of the integrated stress response pathway through one of four eukaryotic initiation factor 2α kinases and halts global translation, while allowing for the translation of select transcripts like ATF4 (activating transcription factor 4) that are important for the response to cellular stress. During normal conditions, small open reading frames (ORFs) in the 5′ UTR of ATF4 occupy the ribosome and prevent translation of the coding sequence of ATF4. During stress conditions however, the ribosome scans past these upstream ORFs and preferentially begins translation at the coding sequence of ATF4. In this way, the translation, and thus protein level of ATF4 is a readout of ISR pathway activation. Thus, a fusion of the uORFs and the beginning of the coding sequence of ATF to a common cellular reporter like nano-luciferase allows for a sensitive and high-throughput readout of ISR pathway activity.
Compounds as provided herein were tested in the following assay. The ATF4 Nano Luciferase reporter was constructed by fusing the human full length 5′ untranslated region (5′-UTR) and a small portion of the coding sequence of the ATF4 gene upstream of the Nano Luciferase (NLuc) coding sequence lacking it's start codon. Specifically, nucleotides +1 through +364 (relative to the transcriptional start site) of ATF4 transcript variant 2 (NCBI NM_182810.2) flanked 5′ by EcoRI and 3′ by BamHI restriction enzyme sites were synthesized and cloned into the EcoRI/BamHI cloning sites of pLVX-EF1a-IRES-Puro lentivirus vector (Clontech). Lentiviral particles were produced with Lenti-X single shots (VSV-G, Clontech) according to the manufacturer's instructions and used to transduce a human H4 neuroglioma cell line (ATCC HT1B-148). H4 cells were selected with 1.25 μg/mL Puromycin, and clonal cell lines generated by limiting dilution. We utilized this cell line to generate an integrated stress response (ISR) assay to evaluate the activity of ISR pathway inhibitors via luminescence readout. The H4 ATF4-NLuc (clone 17) cell line is plated at a density of […] cells in 96-well or 384-well respectively in DMEM +10% fetal bovine serum. 24-hours later test compounds diluted in dimethyl sulfoxide (DMSO) are added for 30 minutes at 37° C., followed by ISR pathway activation with 50 μm sodium arsenite aqueous solution for 6 additional hours. Nano Glo luciferase reagent (N1150, Promega) is added according to manufacturer instructions and the luminescence signal (corresponding to the level of ATF4 translation and thus ISR pathway activation) is read with a standard plate reader with luminescence detection capabilities.
In the tables below, activity of the tested compounds is provided, and in Table 3 as follows: +++=0.003 μM<IC50<1 μM; ++=IC50 1-10 μM; +=IC50>10 μM.

| SMILES | IC50 |
| --- | --- |
| O=C(COc1ccc(C(F)(F)F)cc1)N[C@@H]1CC[C@@H](C(=O)NCc2ccc(C(F)(F)F)cc2)OC1 [Example 1, (2S,5R)-5-[[2-[4-(trifluoromethyl)phenoxy]acetyl]amino]-N-[[4-(trifluoromethyl)phenyl]methyl]tetrahydropyran-2-carboxamide] | 0.003 to 1 µM |
| O=C(COc1ccc(C(F)(F)F)cc1)N[C@@H]1CC[C@@H](C(=O)Nc2ccc3cc(Cl)ccc3n2)OC1 [Example 2, (2S,5R)—N-(6-chloro-2-quinolyl)-5-[[2-[4-(trifluoromethyl)phenoxy]acetyl]amino]tetrahydropyran-2-carboxamide] | 0.003 to 1 µM |
| CC1CN(C(=O)[C@@H]2CC[C@@H](NC(=O)COc3ccc(Cl)cc3)CO2)Cc2ccc(Cl)cc21 (stereo partly drawn) [Example 3, 2-(4-chlorophenoxy)-N-[(3R,6S)-6-(6-chloro-4-methyl-3,4-dihydro-1H-isoquinoline-2-carbonyl)tetrahydropyran-3-yl]acetamide] | 0.003 to 1 µM |
| O=C(COc1ccc(C(F)(F)F)cc1)N[C@@H]1CC[C@@H](C(=O)NCCCOC(F)(F)F)OC1 [Example 4, (2S,5R)-N-[3-(trifluoromethoxy)propyl]-5-[[2-[4-(trifluoromethyl)phenoxy]acetyl]amino]tetrahydropyran-2-carboxamide] | 0.003 to 1 µM |
| O=C(COc1ccc(C(F)(F)F)cc1)N[C@@H]1CC[C@@H](C(=O)N2CCc3cc(C(F)(F)F)ccc3C2)OC1 [Example 5, N-[(3R,6S)-6-[6-(trifluoromethyl)-3,4-dihydro-1H-isoquinoline-2-carbonyl]tetrahydropyran-3-yl]-2-[4-(trifluoromethyl)phenoxy] acetamide] | 0.003 to 1 µM |
| CC1c2ccc(Cl)cc2CCN1C(=O)[C@@H]1CC[C@@H](NC(=O)COc2ccc(Cl)cc2)CO1 (stereo partly drawn) [Example 6, 2-(4-chlorophenoxy)-N-[(3R,6S)-6-(6-chloro-1-methyl-3,4-dihydro-1H-isoquinoline-2-carbonyl)tetrahydropyran-3-yl]acetamide] | 0.003 to 1 µM |
| O=C(COc1ccc(C(F)(F)F)cc1)N[C@@H]1CC[C@@H](C(=O)Nc2ccc3ccc(Cl)cc3n2)OC1 [Example 7, (2S,5R)-N-(7-chloro-2-quinolyl)-5-[[2-[4-(trifluoromethyl)phenoxy]acetyl]amino]tetrahydropyran-2-carboxamide] | 0.003 to 1 µM |
| O=C(COc1ccc(C(F)(F)F)cc1)N[C@@H]1CC[C@@H](C(=O)N2C[C@@H]3[C@H](C2)[C@H]3C(F)(F)F)OC1 [Example 8, N-[(3R,6S)-6-[(1r,5s)-6-(trifluoromethyl)-3-azabicyclo[3.1.0]hexane-3-carbonyl]tetrahydropyran-3-yl]-2-[4-(trifluoromethyl)phenoxy]acetamide] | 1 to 10 µM |
| O=C(COc1ccc(C(F)(F)F)cc1)N[C@@H]1CC[C@@H](C(=O)Nc2cc3ccc(Cl)cc3cn2)OC1 [Example 9, (2S,5R)-N-(7-chloro-3-isoquinolyl)-5-[[2-[4-(trifluoromethyl)phenoxy]acetyl]amino]tetrahydropyran-2-carboxamide] | 0.003 to 1 µM |
| O=C(COc1ccc(C(F)(F)F)cc1)N[C@@H]1CC[C@@H](C(=O)N2CCc3nc(C(F)(F)F)ccc3C2)OC1 [Example 10, N-[(3R,6S)-6-[2-(trifluoromethyl)-7,8-dihydro-5H-1,6-naphthyridine-6-carbonyl]tetrahydropyran-3-yl]-2-[4-(trifluoromethyl)phenoxy] acetamide] | 0.003 to 1 µM |
| O=C(COc1ccc(C(F)(F)F)cc1)N[C@@H]1CC[C@@H](C(=O)N2Cc3ccc(C(F)(F)F)cc3C2)OC1 [Example 11, N-[(3R,6S)-6-[5-(trifluoromethyl)isoindoline-2-carbonyl]tetrahydropyran-3-yl]-2-[4-(trifluoromethyl)phenoxy] acetamide] | 0.003 to 1 µM |
| O=C(N[C@@H]1CC[C@@H](C(=O)N[C@H]2C[C@@H](COC(F)(F)F)C2)OC1)c1ccc2cc(C(F)(F)F)ccc2n1 [Example 12, N-[(3R,6S)-6-[[3-cis-(trifluoromethoxymethyl)cyclobutyl]carbamoyl]tetrahydropyran-3-yl]-6-(trifluoromethyl) quinoline-2-carboxamide] | 0.003 to 1 µM |
| O=C(COc1ccc(C(F)(F)F)cc1)N[C@@H]1CC[C@@H](C(=O)N[C@H]2C[C@@H](COC(F)(F)F)C2)OC1 [Example 13, (2S,5R)-N-[3-cis-(trifluoromethoxymethyl)cyclobutyl]-5-[[2-[4-(trifluoromethyl)phenoxy]acetyl]amino]tetrahydropyran-2-carboxamide] | 0.003 to 1 µM |
| O=C(COc1ccc(Cl)cc1)N[C@@H]1CC[C@@H](C(=O)NCc2cccc(C(F)(F)F)c2)OC1 [Example 14, (2S,5R)-5-[[2-(4-chlorophenoxy)acetyl]amino]-N-[[3-(trifluoromethyl)phenyl]methyl] tetrahydropyran-2-carboxamide] | 0.003 to 1 µM |
| O=C(COc1ccc(Cl)cc1)N[C@@H]1CC[C@@H](C(=O)NCc2cccc(Cl)c2)OC1 [Example 15, (2S,5R)-5-[[2-(4-chlorophenoxy)acetyl]amino]-N-[(3-chlorophenyl)methyl] tetrahydropyran-2-carboxamide] | 0.003 to 1 µM |
| O=C(COc1ccc(Cl)cc1)N[C@@H]1CC[C@@H](C(=O)NCc2ccc(C(F)(F)F)nc2)OC1 [Example 16, (2S,5R)-5-[[2-(4-chlorophenoxy)acetyl]amino]-N-[[6-(trifluoromethyl)-3-pyridyl]methyl] tetrahydropyran-2-carboxamide] | 0.003 to 1 µM |
| C[C@@H](NC(=O)[C@@H]1CC[C@@H](NC(=O)COc2ccc(Cl)cc2)CO1)c1ccc(Cl)cc1 [Example 17, (2S,5R)-5-[[2-(4-chlorophenoxy)acetyl]amino]-N-[(1R)-1-(4-chlorophenyl)ethyl] tetrahydropyran-2-carboxamide] | 0.003 to 1 µM |
| C[C@H](NC(=O)[C@@H]1CC[C@@H](NC(=O)COc2ccc(Cl)cc2)CO1)c1ccc(Cl)cc1 [Example 18, (2S,5R)-5-[[2-(4-chlorophenoxy)acetyl]amino]-N-[(1S)-1-(4-chlorophenyl)ethyl] tetrahydropyran-2-carboxamide] | 0.003 to 1 µM |
| CN(Cc1ccc(Cl)cc1)C(=O)[C@@H]1CC[C@@H](NC(=O)COc2ccc(Cl)cc2)CO1 [Example 19, (2S,5R)-5-[[2-(4-chlorophenoxy)acetyl]amino]-N-[(4-chlorophenyl)methyl]-N-methyl-tetrahydropyran-2-carboxamide] | 0.003 to 1 µM |
| O=C(COc1ccc(Cl)cc1)N[C@@H]1CC[C@@H](C(=O)NCc2ccc(C(F)(F)F)cc2)OC1 [Example 20, (2S,5R)-5-[[2-(4-chlorophenoxy)acetyl]amino]-N-[[4-(trifluoromethyl)phenyl]methyl] tetrahydropyran-2-carboxamide] | 0.003 to 1 µM |
| O=C(COc1ccc(Cl)cc1)N[C@@H]1CC[C@@H](C(=O)N2CCc3ccc(Cl)cc3C2)OC1 [Example 21, 2-(4-chlorophenoxy)-N-[(3R,6S)-6-(7-chloro-3,4-dihydro-1H-isoquinoline-2-carbonyl)tetrahydropyran-3-yl]acetamide] | 0.003 to 1 µM |
| O=C(COc1ccc(Cl)cc1)N[C@@H]1CC[C@@H](C(=O)N2CCc3cc(Cl)ccc3C2)OC1 [Example 22, 2-(4-chlorophenoxy)-N-[(3R,6S)-6-(6-chloro-3,4-dihydro-1H-isoquinoline-2-carbonyl)tetrahydropyran-3-yl]acetamide] | 0.003 to 1 µM |
